Where two headings read alike, the source gives them in different places.

One may read the Ki as the equilibrium dissociation constant of an inhibitor or competing ligand from its target.

Test [1] concerns the target human recombinant sGC enzyme (Homo sapiens (Human), UniProt Q02108+Q02153). The test is described as follows: Size Exclusion Chromatography (SEC) competition binding assay using [3H] Ex-77B as the radioligand. As to conditions: [3H] Ex-77B radioligand, 24 hours at 37° C. The method, boiled down:
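Recombinant human sGC binding measured by competition against tritiated Ex-77B radioligand, with non-specific binding defined by 1 μM unlabeled Ex-77B.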
Background: Size exclusion chromatography separates by hydrodynamic size, large species first.

The target in another test is sGC α1/β1 heterodimer (Homo sapiens (Human), UniProt Q02108+Q02153). The test is described as follows: Cell-based sGC functional assay (cyclic GMP assay for sGC activator: CASA assay). As to conditions: CHO-K1/sGC cells; for Emax: read-out: % Activation; for EC50: inflection point, 4P fit, read-out: IP. The gist of the method:
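CHO-K1 cells stably expressing sGC α1/β1 were pre-incubated with or without 1 μM DETA-NO (30 min, 25 °C), then exposed to compounds for 1 hr at 37 °C with 0.5 mM IBMX. Intracellular cGMP was read by HTRF and expressed as a percentage of a reference heme-dependent activator's maximum.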

[2] abbreviates: CHO-K1, activity expressed as percentage of compound A (standard).

For the compound `Cc1cccc(Cn2nc(-c3nc(N)c4c(n3)NC(=O)[C@@]4(C)c3nc(CC(C)(C)C(=O)O)cs3)c3ccc(Cl)cc32)c1F` [Example 188A, (S)-3-(2-{4-amino-2-[6-chloro-1-(2-fluoro-3-methyl-benzyl)-1H-indazol-3-yl]-5-methyl-6-oxo-6,7-dihydro-5H-pyrrolo[2,3-d]pyrimidin-5-yl}-1,3-thiazol-4-yl)-2,2-dimethyl-propanoic acid], in test [1], the Ki turned out to be 0.1 nM. Further, at sGC α1/β1 heterodimer (setting [2]), the Emax worked out at 124%. The EC50 on sGC α1/β1 heterodimer was 109 nM.
Consider `C[C@@]1(c2ccc(CCc3noc(=O)[nH]3)cc2)C(=O)Nc2nc(-c3nn(Cc4ccccc4F)c4cc(Cl)ccc34)nc(N)c21` [Example 256B, (S)-4-Amino-2-[6-chloro-1-(2-fluorobenzyl)-1H-indazol-3-yl]-5-methyl-5-{4-[2-(5-oxo-4,5-dihydro-1,2,4-oxadiazol-3-yl)ethyl]phenyl}-5,7-dihydro-6H-pyrrolo[2,3-d]pyrimidin-6-one], for which the Ki in test [1] turned out to be 0.074 nM. Further, the Emax on sGC α1/β1 heterodimer (activity expressed as percentage of compound A (standard)) amounted to 104%. Moreover, the EC50 on sGC α1/β1 heterodimer turned out to be 2050 nM.
For the compound `CC(C)(NC(=O)CCc1ccc([C@]2(C)C(=O)Nc3nc(-c4nn(Cc5ccccc5F)c5ncccc45)nc(N)c32)cc1)C(=O)O` [Example 101B, (S)-2-(3-(4-{4-amino-2-[1-(2-fluorobenzyl)-1H-pyrazolo[3,4-b]pyridin-3-yl]-5-methyl-6-oxo-6,7-dihydro-5H-pyrrolo[2,3-d]pyrimidin-5-yl}phenyl)propanamido)-2-methylpropanoic acid], the Ki in test [1] was 0.026 nM. In addition, at sGC α1/β1 heterodimer (setting [2]), the Emax amounted to 111%. Further, the EC50 at sGC α1/β1 heterodimer stood at 2340 nM.
For `Cc1cccc(Cn2nc(-c3nc(N)c4c(n3)NC(=O)[C@@]4(C)c3ccc(CCC(=O)O)cc3)c3ccccc32)c1` [Example 225B, (S)-3-(4-{4-amino-5-methyl-2-[1-(3-methylbenzyl)-1H-indazol-3-yl]-6-oxo-6,7-dihydro-5H-pyrrolo[2,3-d]pyrimidin-5-yl}phenyl)propanoic acid], the Ki in test [1] stood at 0.342 nM. The Emax on sGC α1/β1 heterodimer (setting [2]) turned out to be 140%. Moreover, at sGC α1/β1 heterodimer, the EC50 was 460 nM.
For `CC1(c2ccc(CCC(=O)O)c(C#N)c2)C(=O)Nc2nc(-c3nn(CCC(F)(F)C(F)(F)F)c4cc(Cl)ccc34)nc(N)c21` (centres unmarked) [Example 120B, 3-(4-{4-Amino-2-[6-chloro-1-(3,3,4,4,4-pentafluorobutyl)-1H-indazol-3-yl]-5-methyl-6-oxo-6,7-dihydro-5H-pyrrolo[2,3-d]pyrimidin-5-yl}-2-cyanophenyl)propanoic acid], the Ki in test [1] came to 0.41 nM. Moreover, the Emax at sGC α1/β1 heterodimer (setting [2]) is 127%. The EC50 on sGC α1/β1 heterodimer was 1930 nM.
As for `CC1(c2cccc(-c3nn[nH]n3)n2)C(=O)Nc2nc(-c3nn(Cc4ccccc4F)c4cc(Cl)ccc34)nc(N)c21` (single isomer, unassigned) [Example 253A, 5-[6-(2H-tetrazol-5-yl)pyridin-2-yl]-4-amino-2-[6-chloro-1-(2-fluorobenzyl)-1H-indazol-3-yl]-5-methyl-5,7-dihydro-6H-pyrrolo[2,3-d] pyrimidin-6-one], in test [1], the Ki is 0.146 nM. The EC50 at sGC α1/β1 heterodimer turned out to be 3630 nM.
`CC1(c2cn(C(C)(C)C(=O)O)nn2)C(=O)Nc2nc(-c3nn(CCC(F)(F)C(F)(F)F)c4cc(Cl)ccc34)nc(N)c21` (centres unmarked) [Example 30B, 2-(4-{4-amino-2-[6-chloro-1-(3,3,4,4,4-pentafluorobutyl)-1H-indazol-3-yl]-5-methyl-6-oxo-6,7-dihydro-5H-pyrrolo[2,3-d]pyrimidin-5-yl}-1H-1,2,3-triazol-1-yl)-2-methylpropanoic acid]: the Ki in test [1] was 0.56 nM. Also, at sGC α1/β1 heterodimer (setting [2]), the Emax came out at 93%. The EC50 on sGC α1/β1 heterodimer was determined as 176 nM.
On the same counts, the results for `Cc1ccccc1Cn1nc(-c2nc(N)c3c(n2)NC(=O)[C@@]3(C)c2ccc(CCC(=O)O)cc2)c2ccc(Cl)cc21` [Example 68B, (S)-3-(4-{4-amino-2-[6-chloro-1-(2-methylbenzyl)-1H-indazol-3-yl]-5-methyl-6-oxo-6,7-dihydro-5H-pyrrolo[2,3-d]pyrimidin-5-yl}phenyl)propanoic acid] are 3.1 nM, 109% and 568 nM.
For `CC(C)(Cc1csc([C@]2(C)C(=O)Nc3nc(-c4nn(Cc5cccc(F)c5)c5ncccc45)nc(N)c32)n1)C(=O)O` [Example 149A, (S)-3-(2-{4-amino-2-[1-(3-fluoro-benzyl)-1H-pyrazolo [3,4-b]pyridin-3-yl]-5-methyl-6-oxo-6,7-dihydro-5H-pyrrolo[2,3-d]pyrimidin-5-yl}-1,3-thiazol-4-yl)-2,2-dimethyl-propanoic acid], in test [1], the Ki is 0.167 nM. Moreover, at sGC α1/β1 heterodimer (setting [2]), the Emax amounted to 103%. For the same compound, on sGC α1/β1 heterodimer, the EC50 is 111 nM.
Consider `CC1CCC(Cn2nc(-c3nc(N)c4c(n3)NC(=O)[C@@]4(C)c3nc(CC(C)(C)C(=O)O)cs3)c3cccnc32)CC1` (single isomer, unassigned) [Example 125AB], for which, in test [1], the Ki came to 0.336 nM. For the same compound, at sGC α1/β1 heterodimer (setting [2]), the Emax amounted to 138%. On sGC α1/β1 heterodimer, the EC50 was 56 nM.
Take `CC(C)(CCc1coc(C2(C)C(=O)Nc3nc(-c4nn(Cc5ncccc5F)c5cc(Cl)ccc45)nc(N)c32)n1)C(=O)O` (centres unmarked) [Example 207B, 4-{2-[4-amino-2-{6-chloro-1-[(3-fluoropyridin-2-yl)methyl]-1H-indazol-3-yl}-5-methyl-6-oxo-6,7-dihydro-5H-pyrrolo[2,3-d]pyrimidin-5-yl]-1,3-oxazol-4-yl}-2,2-dimethyl-butanoic acid]: the Ki in test [1] was determined as 0.095 nM. Besides, the Emax on sGC α1/β1 heterodimer (setting [2]) is 100%. The EC50 at sGC α1/β1 heterodimer came out at 1760 nM.
With `COCCn1nc(-c2nc(N)c3c(n2)NC(=O)[C@@]3(C)c2ccc(CCC(=O)O)cc2)c2ccc(Cl)cc21` (single isomer, unassigned) [Example 40B], in test [1], the Ki turned out to be 4.38 nM. Moreover, the Emax at sGC α1/β1 heterodimer (setting [2]) came to 94%. Also, the EC50 on sGC α1/β1 heterodimer amounted to 2560 nM.
For `CCCCn1nc(-c2nc(N)c3c(n2)NC(=O)C3(C)c2cn(CC(=O)O)nn2)c2ccc(Cl)cc21` (centres unmarked) [Example 35B, 2-{4-[4-amino-2-(1-butyl-6-chloro-1H-indazol-3-yl)-5-methyl-6-oxo-6,7-dihydro-5H-pyrrolo[2,3-d]pyrimidin-5-yl]-1H-1,2,3-triazol-1-yl}acetic acid], in that order: 1.12 nM, 102% and 2790 nM.
For the compound `CC1(c2ccc(-c3nn[nH]n3)cc2)C(=O)Nc2nc(-c3nn(Cc4ccccc4F)c4cc(F)ccc34)nc(N)c21` (centres unmarked) [Example 250B, 4-amino-2-[6-fluoro-1-(2-fluorobenzyl)-1H-indazol-3-yl]-5-methyl-5-[4-(1H-tetrazol-5-yl)phenyl]-5,7-dihydro-6H-pyrrolo[2,3-d] pyrimidin-6-one], in test [1], the Ki was 0.108 nM. For the same compound, the Emax at sGC α1/β1 heterodimer (setting [2]) came to 102%. Besides, at sGC α1/β1 heterodimer, the EC50 worked out at 1700 nM.
For `Nc1nc(-c2nn(CCC(F)(F)C(F)(F)F)c3cc(Cl)ccc23)nc2c1C(c1ccc(CCC(=O)O)cc1)(C1CC1)C(=O)N2` (centres unmarked) [Example 158A, 3-(4-{4-amino-2-[6-chloro-1-(3,3,4,4,4-penta-fluorobutyl)-1H-indazol-3-yl]-5-cyclopropyl-6-oxo-6,7-dihydro-5H-pyrrolo[2,3-d]pyrimidin-5-yl}phenyl)propanoic acid], the Ki in test [1] is 0.864 nM. For the same compound, the Emax at sGC α1/β1 heterodimer (setting [2]) amounted to 88.8%. Also, the EC50 at sGC α1/β1 heterodimer amounted to 353 nM.

Values taken from patent US10030027B2, “Soluble guanylate cyclase stimulators” (MERCK SHARP & DOHME CORP., priority 2015, dated 2018).
